Reference: ChEMBL document CHEMBL1201862, “PubChem BioAssay data set” (2004)
Activity calls are given as the source filed them.

Experiments:
[1] = test system: Streptococcus; test: Group A Streptococcus viability loss, dose response, counter-screen for streptokinase expression inhibitor project, luminescence, BacTiterGlo (AID 1915); format: functional, organism-based;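 also: potency for reduction of bacterial viability or growth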
[2] = biological target: T1, Short transient receptor potential channel 4 (Mus musculus, UniProt Q9QUQ5); test: mouse TRPC4 channel activators, dose response, cell-based, HEK293 TRPC4/mu-opioid, Fluo-4 calcium (AID 434937); format: functional
T1 sequence (Q9QUQ5 whole entry): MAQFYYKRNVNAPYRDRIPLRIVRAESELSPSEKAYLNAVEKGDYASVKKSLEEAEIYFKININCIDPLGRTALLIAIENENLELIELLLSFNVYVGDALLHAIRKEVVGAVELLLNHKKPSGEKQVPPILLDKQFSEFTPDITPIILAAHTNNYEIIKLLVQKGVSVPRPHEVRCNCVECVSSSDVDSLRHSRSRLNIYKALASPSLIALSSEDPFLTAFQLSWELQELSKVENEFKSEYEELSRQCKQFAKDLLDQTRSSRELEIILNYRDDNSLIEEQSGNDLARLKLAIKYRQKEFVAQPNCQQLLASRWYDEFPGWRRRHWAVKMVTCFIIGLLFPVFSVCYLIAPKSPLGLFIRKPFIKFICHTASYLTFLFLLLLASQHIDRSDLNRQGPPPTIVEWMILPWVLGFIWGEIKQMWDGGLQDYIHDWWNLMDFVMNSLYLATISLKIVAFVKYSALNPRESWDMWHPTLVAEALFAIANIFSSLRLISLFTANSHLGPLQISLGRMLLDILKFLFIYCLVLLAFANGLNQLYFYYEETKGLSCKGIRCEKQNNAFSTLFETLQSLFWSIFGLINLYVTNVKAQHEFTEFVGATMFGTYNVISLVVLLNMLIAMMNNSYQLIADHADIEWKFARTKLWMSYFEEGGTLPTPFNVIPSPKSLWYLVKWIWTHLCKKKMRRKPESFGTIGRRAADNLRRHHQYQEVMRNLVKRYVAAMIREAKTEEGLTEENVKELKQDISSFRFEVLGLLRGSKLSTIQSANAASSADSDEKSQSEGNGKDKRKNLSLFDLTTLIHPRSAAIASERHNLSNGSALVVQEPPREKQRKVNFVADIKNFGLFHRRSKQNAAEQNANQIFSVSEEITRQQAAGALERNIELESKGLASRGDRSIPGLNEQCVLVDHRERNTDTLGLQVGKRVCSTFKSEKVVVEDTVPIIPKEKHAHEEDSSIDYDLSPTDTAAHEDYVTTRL

[3] = biological target: T2, Streptokinase A (Streptococcus pyogenes serotype M1, UniProt P10520); test: S. pyogenes streptokinase expression inhibitors, potency, dose response, plasminogen activation absorbance, OD405 (AID 1914); format: functional, Streptococcus pyogenes M1 GAS;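 also: secreted streptokinase activity via plasminogen activation per viability signal from cell pellet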
T2 sequence (P10520 whole entry): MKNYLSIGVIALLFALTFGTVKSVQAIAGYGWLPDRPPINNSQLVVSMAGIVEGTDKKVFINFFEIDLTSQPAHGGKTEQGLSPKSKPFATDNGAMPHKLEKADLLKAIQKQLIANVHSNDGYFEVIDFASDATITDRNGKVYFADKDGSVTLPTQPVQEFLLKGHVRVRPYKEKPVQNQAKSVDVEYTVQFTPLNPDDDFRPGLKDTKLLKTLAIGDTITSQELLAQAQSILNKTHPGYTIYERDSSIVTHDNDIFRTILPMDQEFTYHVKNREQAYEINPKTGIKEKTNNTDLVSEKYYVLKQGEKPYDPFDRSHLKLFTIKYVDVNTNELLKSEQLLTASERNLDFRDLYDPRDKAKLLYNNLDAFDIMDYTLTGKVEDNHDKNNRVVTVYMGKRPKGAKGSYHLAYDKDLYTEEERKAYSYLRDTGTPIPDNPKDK

[4] = biological target: Albumin (Bos taurus, UniProt P02769); test: Counterscreen for inhibitors of T-cell receptor (TCR)-CD3 interaction: Fluorescence-based biochemical high throughput dose response assay to identify inhibitors of T-cell receptor (TCR)-CD3 interaction using a TAMRA-labeled BSA probe.; format: functional
[5] = biological target: T3, Heat shock factor protein 1 (Mus musculus, UniProt P38532); test: inhibition of MG132-induced HSE-luciferase signal, confirmation, cell-based, NIH3T3, luminescence, dose retest (AID 2382); format: functional;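 also: NIH3T3 fibroblasts with HSF1-driven luciferase reporter stressed by proteasome inhibitor MG132; luminescence from HSF1-driven luciferase expression after 8 hours of MG132 stress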
T3 sequence (P38532 whole entry): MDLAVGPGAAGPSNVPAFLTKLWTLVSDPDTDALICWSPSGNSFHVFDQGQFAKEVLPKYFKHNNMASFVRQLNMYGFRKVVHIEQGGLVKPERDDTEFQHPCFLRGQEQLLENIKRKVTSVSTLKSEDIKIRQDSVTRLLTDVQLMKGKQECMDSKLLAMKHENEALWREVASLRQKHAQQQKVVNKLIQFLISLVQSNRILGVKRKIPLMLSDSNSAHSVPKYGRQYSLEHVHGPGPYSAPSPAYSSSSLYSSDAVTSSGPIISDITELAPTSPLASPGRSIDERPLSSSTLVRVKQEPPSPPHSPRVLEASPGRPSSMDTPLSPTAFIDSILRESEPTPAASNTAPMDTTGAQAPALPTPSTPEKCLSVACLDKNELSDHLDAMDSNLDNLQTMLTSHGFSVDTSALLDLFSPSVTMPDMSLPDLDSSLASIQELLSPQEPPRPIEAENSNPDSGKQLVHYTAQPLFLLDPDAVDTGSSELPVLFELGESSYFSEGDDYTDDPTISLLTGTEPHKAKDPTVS

[6] = test system: Streptococcus sp. 'group A'; test: growth inhibition of control SK(-) GAS strain, dose response, counter-screen for streptokinase expression inhibitor project, luminescence, kanamycin, BacTiterGlo, confirmation (AID 1900); format: functional, organism-based
[7] = cells; format: functional, cell-based
[8] = biological target: T4, Trace amine-associated receptor 1 (Homo sapiens, UniProt Q96RJ0); test: Fluorescence-based cell-based high throughput dose response assay to identify agonists of the human trace amine associated receptor 1 (TAAR1).; format: functional
T4 sequence (Q96RJ0 whole entry): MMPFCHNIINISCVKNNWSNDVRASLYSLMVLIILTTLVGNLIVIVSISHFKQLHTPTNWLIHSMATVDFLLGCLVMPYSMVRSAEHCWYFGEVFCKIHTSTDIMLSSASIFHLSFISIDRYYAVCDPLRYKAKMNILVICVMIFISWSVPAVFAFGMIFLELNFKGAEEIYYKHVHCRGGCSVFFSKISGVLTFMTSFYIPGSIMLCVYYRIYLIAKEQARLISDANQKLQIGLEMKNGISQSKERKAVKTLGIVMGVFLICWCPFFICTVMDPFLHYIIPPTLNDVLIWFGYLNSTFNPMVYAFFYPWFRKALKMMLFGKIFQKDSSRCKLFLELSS

[9] = cells; format: functional, cell-based; remark: listed apart in the source
[10] = biological target: T4, Trace amine-associated receptor 1; test: Counterscreen for agonists of the human trace amine associated receptor 1 (hTAAR1): Fluorescence-based cell-based high throughput dose response assay to identify hTAAR1 agonist that also desensitize TAAR1 receptor response.; format: functional
[11] = HEK293T cell cytotoxicity, dose response, cytotoxicity control for HIV Vif inhibitor project, cherry-picks (AID 652208); format: functional, cell-based
[12] = growth suppression of PTEN-null colon cells, dose response, cell-based, HCT116 PTEN knockout (AID 1047); format: functional;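 also: HCT116 colon tumor cells with PTEN knocked out; cells exposed to compound for 60 hours before readout; potency for loss of cell viability measured by luminescence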
[13] = biological target: T5, Replicative DNA helicase DnaB (Mycobacterium tuberculosis, UniProt P9WMR3); test: DnaB intein splicing inhibitors, dose response, biochemical, cell-free fluorescence (AID 449749); format: functional
T5 sequence (P9WMR3 whole entry): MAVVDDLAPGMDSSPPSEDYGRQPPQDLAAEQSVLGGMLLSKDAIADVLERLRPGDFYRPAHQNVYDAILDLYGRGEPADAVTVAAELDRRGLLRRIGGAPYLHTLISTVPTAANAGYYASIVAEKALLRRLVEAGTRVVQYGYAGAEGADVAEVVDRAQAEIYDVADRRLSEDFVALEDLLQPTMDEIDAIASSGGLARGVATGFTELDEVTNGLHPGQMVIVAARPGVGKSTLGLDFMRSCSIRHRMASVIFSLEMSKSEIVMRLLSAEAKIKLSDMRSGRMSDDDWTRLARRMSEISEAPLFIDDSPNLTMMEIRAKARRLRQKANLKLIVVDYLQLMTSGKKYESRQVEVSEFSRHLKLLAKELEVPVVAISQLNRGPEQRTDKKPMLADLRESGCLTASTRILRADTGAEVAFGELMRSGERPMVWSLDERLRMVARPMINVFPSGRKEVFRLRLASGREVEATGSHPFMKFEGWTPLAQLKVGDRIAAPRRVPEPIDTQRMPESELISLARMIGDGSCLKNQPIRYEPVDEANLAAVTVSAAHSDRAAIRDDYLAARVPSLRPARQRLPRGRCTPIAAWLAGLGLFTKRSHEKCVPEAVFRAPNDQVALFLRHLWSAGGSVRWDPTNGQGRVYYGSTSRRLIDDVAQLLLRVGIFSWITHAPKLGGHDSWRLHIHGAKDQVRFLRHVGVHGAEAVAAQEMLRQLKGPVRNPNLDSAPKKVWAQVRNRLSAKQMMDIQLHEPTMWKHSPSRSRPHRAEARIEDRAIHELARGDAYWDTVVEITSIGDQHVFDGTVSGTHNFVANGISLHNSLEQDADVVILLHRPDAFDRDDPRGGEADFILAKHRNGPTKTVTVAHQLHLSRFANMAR

[14] = biological target: Induced myeloid leukemia cell differentiation protein Mcl-1 (Homo sapiens, UniProt Q07820); format: functional
[15] = growth suppression of beta-catenin-knockout colon cells, dose response, cell-based, HCT116, human colon tumor (AID 1045); format: functional;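 also: HCT116 colon tumor cells with beta catenin knocked out; cells exposed to compound for 60 hours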
[16] = test system: HEK293; test: cells; settings: Homo sapiens
[17] = biological target: T6, Protein RecA (Mycobacterium tuberculosis, UniProt P9WHJ3); test: Fluorescence Cell-Free Homogeneous Dose Retest to Identify Inhibitors of RecA-Intein Splicing Activity. [Related pubchem assays (depositor defined):AID2097, AID2223, AID489010, AID492950]; format: functional
T6 sequence (P9WHJ3 whole entry): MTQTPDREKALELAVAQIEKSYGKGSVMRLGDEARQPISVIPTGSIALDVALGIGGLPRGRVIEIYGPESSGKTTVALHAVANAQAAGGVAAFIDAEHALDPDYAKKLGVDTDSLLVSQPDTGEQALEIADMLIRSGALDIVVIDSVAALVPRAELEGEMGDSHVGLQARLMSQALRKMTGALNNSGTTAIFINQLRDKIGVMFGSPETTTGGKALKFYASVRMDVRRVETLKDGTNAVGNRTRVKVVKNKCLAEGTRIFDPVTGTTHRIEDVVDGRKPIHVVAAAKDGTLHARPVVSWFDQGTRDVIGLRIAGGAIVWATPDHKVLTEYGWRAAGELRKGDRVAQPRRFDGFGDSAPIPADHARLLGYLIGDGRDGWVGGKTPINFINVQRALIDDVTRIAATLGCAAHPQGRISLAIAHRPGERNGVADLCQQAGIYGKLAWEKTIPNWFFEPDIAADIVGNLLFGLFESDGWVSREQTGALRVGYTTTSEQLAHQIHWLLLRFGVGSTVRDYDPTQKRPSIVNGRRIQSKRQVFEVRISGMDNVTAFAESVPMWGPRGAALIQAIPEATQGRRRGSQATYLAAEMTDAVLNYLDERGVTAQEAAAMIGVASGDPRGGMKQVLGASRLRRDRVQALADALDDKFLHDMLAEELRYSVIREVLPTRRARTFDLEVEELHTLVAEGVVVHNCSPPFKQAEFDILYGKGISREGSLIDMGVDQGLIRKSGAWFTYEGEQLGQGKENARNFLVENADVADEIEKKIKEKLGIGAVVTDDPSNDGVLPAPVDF

[18] = test system: HEK293; test: cells; settings: Homo sapiens; remark: listed apart in the source

Induced myeloid leukemia cell differentiation protein Mcl-1, sequence (Q07820 whole entry): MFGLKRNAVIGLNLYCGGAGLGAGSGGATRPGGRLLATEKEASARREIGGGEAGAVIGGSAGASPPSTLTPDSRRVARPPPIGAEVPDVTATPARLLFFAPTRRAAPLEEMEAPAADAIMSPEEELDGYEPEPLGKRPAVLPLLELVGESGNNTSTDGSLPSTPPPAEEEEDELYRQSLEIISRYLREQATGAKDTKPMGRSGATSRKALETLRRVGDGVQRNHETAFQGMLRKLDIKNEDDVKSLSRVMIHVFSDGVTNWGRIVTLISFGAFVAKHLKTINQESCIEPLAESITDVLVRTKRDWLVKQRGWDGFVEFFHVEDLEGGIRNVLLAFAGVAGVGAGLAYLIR
Albumin, sequence (P02769 whole entry): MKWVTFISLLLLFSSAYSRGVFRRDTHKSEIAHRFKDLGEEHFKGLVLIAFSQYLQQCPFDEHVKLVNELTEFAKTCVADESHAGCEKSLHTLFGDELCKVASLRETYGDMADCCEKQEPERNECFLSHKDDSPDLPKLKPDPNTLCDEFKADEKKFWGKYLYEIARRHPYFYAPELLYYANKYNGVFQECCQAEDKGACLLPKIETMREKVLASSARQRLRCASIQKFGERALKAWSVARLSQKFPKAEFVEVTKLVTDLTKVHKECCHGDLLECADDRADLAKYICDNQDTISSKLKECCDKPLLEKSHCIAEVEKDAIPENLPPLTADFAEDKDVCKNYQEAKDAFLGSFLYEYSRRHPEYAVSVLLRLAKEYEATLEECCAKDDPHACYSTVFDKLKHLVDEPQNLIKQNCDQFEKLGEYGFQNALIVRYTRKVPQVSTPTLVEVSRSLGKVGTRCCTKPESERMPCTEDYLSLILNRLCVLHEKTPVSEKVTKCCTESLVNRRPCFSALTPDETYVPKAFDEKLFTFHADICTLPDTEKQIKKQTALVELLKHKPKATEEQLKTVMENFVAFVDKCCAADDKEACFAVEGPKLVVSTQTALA

## COc1ccc(C(=O)NNC(=S)NC(=O)c2cccs2)cc1
[1]
  EC50: 15.1 µM (active)
[2]
  EC50: 10.6 µM (active)
[3]
  EC50: > 150 µM (not active)
[4]
  IC50: > 94 µM (inactive)
[5]
  EC50: > 195 µM (not active)
[6]
  EC50: 3.71 µM (active)

## CCCOC1CCCN(C(=O)c2cc(Cl)c(Cl)cc2C(=O)O)C1 (stereo not drawn)
[7]
  EC50: > 29.9 µM (inactive)
[8]
  EC50: 8.64 µM (active)
[9]
  IC50: > 29.9 µM (inactive)
[10]
  IC50: > 29.9 µM (inactive)

## COc1ccc(NC(=O)Cn2ncc(Cl)c(Cl)c2=O)cc1S(=O)(=O)N1CCOCC1
[11]
  AC50: 10.8 µM (active)
[12]
  EC50: 7.27 µM (active)
[13]
  AC50: 44.2 µM (active)
[14]
  IC50: 6.5 µM (active)
[15]
  EC50: 5.71 µM (active)
[16]
  EC50: > 59.6 µM (inactive)
[17]
  EC50: 10.1 µM (active)
[18]
  EC50: > 59.6 µM (inactive)
